Measurements taken from US5856509A, “Derivatives of imidazole, their preparation process, the new intermediates obtained, their use as medicaments and the pharmaceutical compositions containing them” (Roussel Uclaf, priority 1994, dated 1999).

Experiments:
[1] = target: T1, B receptor of endothelin (Rattus norvegicus, UniProt P21451); assay: Study of the activity on the B receptor of endothelin: displacement of 125I Endothelin on membrane preparation of rat posterior cortex plus cerebellum; format: binding; conditions: Table I, rat posterior cortex plus cerebellum membranes, 25° C., 60 minutes, read-out: B receptor of endothelin IC50 in nanomoles
T1 construct: A membrane preparation is produced from the posterior cortex plus cerebellum of a rat; from tissue; host or cells: rat posterior cortex plus cerebellum, membrane preparation
T1 sequence (P21451 27-442): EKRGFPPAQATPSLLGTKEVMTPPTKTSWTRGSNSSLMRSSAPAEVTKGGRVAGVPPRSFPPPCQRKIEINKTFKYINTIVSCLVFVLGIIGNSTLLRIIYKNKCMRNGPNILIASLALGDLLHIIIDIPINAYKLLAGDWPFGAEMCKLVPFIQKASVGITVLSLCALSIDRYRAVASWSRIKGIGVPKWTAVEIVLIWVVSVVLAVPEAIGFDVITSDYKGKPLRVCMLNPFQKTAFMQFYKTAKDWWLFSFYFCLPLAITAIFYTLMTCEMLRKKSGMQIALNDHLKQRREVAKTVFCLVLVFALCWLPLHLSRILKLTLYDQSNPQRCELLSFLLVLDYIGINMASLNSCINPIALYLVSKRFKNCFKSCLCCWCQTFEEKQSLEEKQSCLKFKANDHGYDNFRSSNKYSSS
Procedure: STUDY OF THE ACTIVITY ON THE B RECEPTOR OF ENDOTHELIN
A membrane preparation is produced from the posterior cortex plus cerebellum of a rat. The tissue is ground up in a POLYTRON in a 50 mM Tris buffer pH=7.4.
After 30 minutes at 25° C. (W.B.) the homogenate is centrifuged at 30000 g for 15 minutes (2 centrifugations with intermediate take-up in the Tris buffer pH. 7.4).
(§1) The pellets are resuspended in an incubation buffer (25 mM Tris, 5 microg/ml pepstatin A, 3 microg/ml aprotinin, 0.1 mM PMSF, 3 mM EDTA, 1 mM EGTA pH 7.4).
(§2) 2 ml aliquots are distributed into hemolysis tubes and ^125 I Endothelin (approximately 50000 dpm/tube) and the product to be studied are added. (The product is first tested at 3×10^-5 M three times). When the tested product displaces more than 50% of the radioactivity specifically bound to the receptor, it is tested again according to a range of 7 concentrations so as to determine the concentration which inhibits the radioactivity specifically bound to the receptor by 50%. In this way the 50% inhibitory concentration is determined.
(§3) The non-specific bond is determined by the addition of 10^-6 M endothelin (three times). After incubation at 25° C. for 60 minutes, putting back in the water bath at 0° C., for 5 minutes, filtering under reduced pressure, rinsing with Tris buffer 7.4, the radioactivity is counted in the presence of scintillating Triton.
(§4) The result is expressed directly as the 50% inhibitory concentration (IC50), that is to say as the concentration of product studied expressed in nM, necessary to displace 50% of the specific radioactivity bound to the receptor studied.

[2] = target: T2, A receptor of endothelin (Rattus norvegicus, UniProt P26684); assay: Study of the activity on the A receptor of endothelin: displacement of 125I Endothelin on membrane preparation of rat heart (ventricles); format: binding; conditions: Table II, rat heart (ventricles) membranes, 25° C., 60 minutes, read-out: B receptor of endothelin IC50 in nanomoles
T2 construct: A membrane preparation is produced from the heart (ventricles) of a rat; from tissue; host or cells: rat heart (ventricles), membrane preparation
T2 sequence (P26684 21-426): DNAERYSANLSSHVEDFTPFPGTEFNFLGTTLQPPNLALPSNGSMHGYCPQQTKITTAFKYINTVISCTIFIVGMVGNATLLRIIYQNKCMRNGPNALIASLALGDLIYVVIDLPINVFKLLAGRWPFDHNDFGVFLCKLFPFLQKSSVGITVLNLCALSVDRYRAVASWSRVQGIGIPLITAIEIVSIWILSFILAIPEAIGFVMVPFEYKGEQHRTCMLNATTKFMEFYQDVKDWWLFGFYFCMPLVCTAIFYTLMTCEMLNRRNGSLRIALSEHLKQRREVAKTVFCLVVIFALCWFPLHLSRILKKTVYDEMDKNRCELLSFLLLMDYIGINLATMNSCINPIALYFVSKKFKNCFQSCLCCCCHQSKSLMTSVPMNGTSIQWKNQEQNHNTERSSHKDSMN
Procedure: STUDY OF THE ACTIVITY ON THE A RECEPTOR OF ENDOTHELIN
A membrane preparation is produced from the heart (ventricles) of a rat. The tissue is ground up in a POLYTRON in a 50 mM Tris buffer pH=7.4.
After 30 minutes at 25° C. (W.B.) the homogenate is centrifuged at 30000 g for 15 minutes (2 centrifugations with intermediate take up in the Tris buffer pH. 7.4).
as §1, §2, §3, §4

COc1ccc(CSc2nc(Sc3ccccc3)n(Cc3cc4c(cc3Cl)OCO4)c2C(=O)O)cc1 [Example 10, 1-((6-chloro-1,3-benzodioxol-5-yl)methyl)-4-(((4-methoxyphenyl)methyl)thio)-2-(phenylthio)-1H-imidazole-5-carboxylic acid]
IC50 [1]: 420 nM | IC50 [2]: 167 nM

COc1ccc(Sc2nc(Sc3ccc(OC)cc3)n(Cc3cc4c(cc3Cl)OCO4)c2C(=O)O)cc1 [Example 18, 1-((6-chloro-1,3-benzodioxol-5-yl)methyl)-2,4-bis(4-(methoxyphenyl)thio)-1H-imidazole-5-carboxylic acid]
IC50 [1]: 88 nM | IC50 [2]: 230 nM

COc1ccc(Sc2nc(Sc3ccccc3)n(Cc3cc4c(cc3Cl)OCO4)c2C(=O)O)cc1 [Example 15]
IC50 [1]: 110 nM | IC50 [2]: 170 nM
